According to paper PMC8474606 (Brain, Behavior, & Immunity - Health, 2020):

Legend:
H+/OC antiporter = assay: DPHM uptake in BMECs after inflammatory cytokine treatment; settings: cytokine 0.1–30 ng/ml, 24 h; DPHM 30 μM, 30 s
Brain uptake index = format: in vivo, rat; settings: data not shown

Compound	Effect on DPHM uptake into BMECs (H+/OC antiporter)	Brain uptake of reference compound, control vs LPS rats (Brain uptake index)
IL-1β: recombinant human interleukin-1β	little effect	–
O=C(O)Cc1ccccc1Nc1c(Cl)cccc1Cl [diclofenac]	–	similar
TNF-α	little effect	–
